From patent publication US20130041005A1, “PHARMACEUTICAL COMPOSITIONS COMPRISING NEUROPILIN INHIBITORS, AND THEIR USE FOR THE PREVENTION AND/OR TREATMENT OF ANGIOGENIC DISORDERS AND CANCERS” (TRAGEX PHARMA, priority 2011, published 2013)

Columns and labels:
MDA-MB-231 = test: WST-1 proliferation assay, MDA-MB-231; format: cell-based, Human; details: for IC50: Homo sapiens, Breast MDA-MB-231, 72 h, read-out: Anti-proliferative activity IC50 (μM) ± SD; for effect on anti-proliferative effect of 5-FU: MDA-MB-231, combination with 5-FU, 72 hours (FIG. 7); for cytotoxicity for cancer cells in vitro: MDAMB-231 cell survival, FIGS. 1A-C
Description: (§1) Cells were grown as subconfluent monolayer and cultured in 75 cm^2 flasks at 37° C., 5% CO2 in a humidified atmosphere, and medium was changed every two days. Only cells from passages 2-6 were used for the experiments.
All cells were detached with 3 ml of trypsin/EDTA (chelator of calcium and magnesium ions) (Lonza), incubated for 5 min at 37° C., and examined using a microscope to ensure that the cells were detached and floating. […] The supernatant was removed and the cell pellet resuspended in […] of culture medium. 50 μl of this solution were transferred in 20 μl of isotonic solution and the cells were counted by count cellular (Beckman Coulter).
(§2) The cell proliferation WST-1 assay is a colorimetric assay for the quantification of cell proliferation and viability, based on the enzymatic cleavage of the tetrazolium salt WST-1 added to the culture medium, to a water soluble colored formazan dye, detected by absorbance at 450 nm, by mitochondrial succinate-tetrazolium reductase in viable cells. An augmentation in enzyme activity will then lead to an increase in the amount of formazan dye formed, which directly correlates to the number of metabolically active cells in the culture.
After an incubation period of 72 h, at day 4, were prepared the […] medium with reagent WST-1 […] ([…]). The medium was removed from the 96 microplate and 200 μl of solution WST-1/medium were added for each well. The cells were incubated at 37° C. in a humidified atmosphere of 5% CO2 for 1 h 30 and the absorbance at 450-655 nm was measured by Microplate Manager 5.2 (Bio-Rad).

BT-474 = test: WST-1 proliferation assay, BT-474; format: cell-based; details: Homo sapiens; Breast BT-474, 72 h; read-out: Anti-proliferative activity IC50 (μM) ± SD
Text: Several cancer cell lines were used: breast cancer cells (MDA-MB-231 (ATTCC® Number HTB-26™), MDA-MB-436 (ATTCC® Number HTB-130™), MDA-MB-438, BT-474 (ATTCC® Number HTB-20™)); cervical cancer cells (HeLa (ATTCC® Number CCL-2™)); colon cancer cells (HCT-116 (ATTCC® Number CCL-247™) and HT-29 (ATTCC® Number HTB-38™)); osteosarcoma cells (U2OS (ATTCC® Number HTB-96™)); pancreas cancer cells (MIA PaCa-2 (ATTCC® Number CRL-1420™) and Panc-10.5 (ATTCC® Number CRL-2547™)); prostate cancer cells (PC-3 (ATTCC® Number CRL-1435™) and LNCaP (ATTCC® Number CRL-1740™)); brain cancer cells (U87 glioblastoma (ATTCC® Number HTB-14™) and SH-SYSY neuroblastoma (ATTCC® Number CRL-2266™)). […]
After observation of cells under the microscope, old media were removed and the adherent cells washed gently twice with PBS (Phosphate Buffer Saline, —Ca^2+, —Mg^2+, Lonza cat no: 17-512F/12). […] 50 μl of this solution were transferred in 20 μl of isotonic solution and the cells were counted by count cellular (Beckman Coulter). […]
(§3) The cell proliferation WST-1 assay is a colorimetric assay for the quantification of cell proliferation and viability, based on the enzymatic cleavage of the tetrazolium salt WST-1 added to the culture medium, to a water soluble colored formazan dye, detected by absorbance at 450 nm, by mitochondrial succinate-tetrazolium reductase in viable cells. […]

U87 glioblastoma [1] = test: WST-1 proliferation assay, U87; format: cell-based; details: Homo sapiens; for IC50: Brain U87, 72 h, read-out: Anti-proliferative activity IC50 (μM) ± SD; for inhibition at 0.1 µM / inhibition at 0.5 µM / inhibition at 1 µM: U87 glioblastoma
Text: (§4) Several cancer cell lines were used: breast cancer cells (MDA-MB-231 (ATTCC® Number HTB-26™), MDA-MB-436 (ATTCC® Number HTB-130™), MDA-MB-438, BT-474 (ATTCC® Number HTB-20™)); cervical cancer cells (HeLa (ATTCC® Number CCL-2™)); colon cancer cells (HCT-116 (ATTCC® Number CCL-247™) and HT-29 (ATTCC® Number HTB-38™)); osteosarcoma cells (U2OS (ATTCC® Number HTB-96™)); pancreas cancer cells (MIA PaCa-2 (ATTCC® Number CRL-1420™) and Panc-10.5 (ATTCC® Number CRL-2547™)); prostate cancer cells (PC-3 (ATTCC® Number CRL-1435™) and LNCaP (ATTCC® Number CRL-1740™)); brain cancer cells (U87 glioblastoma (ATTCC® Number HTB-14™) and SH-SYSY neuroblastoma (ATTCC® Number CRL-2266™)).
(§5) All the cancer cell lines were maintained in cultured in DMEM GlutaMAX™ (GIBCO Invitrogen, France, cat no 31966047) enhanced with 10% foetal bovine serum (GIBCO Invitrogen, France, cat no 10270-106) and 1% penicillin G/streptomycin (GIBCO Invitrogen, France, cat no 15140-122). Only Panc-10.5 cells were cultivated in RPMI 1640 medium (Gibco) supplemented with 2 mM L-glutamine, 1.5 g/L sodium bicarbonate, 4.5 g/L glucose, 10 mM HEPES, 1 mM sodium pyruvate, 10 Units/ml human insulin, […] (SVF): 15% (75 ml in 500 ml of medium).
as §1
(§6) After observation of cells under the microscope, old media were removed and the adherent cells washed gently twice with PBS (Phosphate Buffer Saline, —Ca^2+, —Mg^2+, Lonza cat no: 17-512F/12). All cells were detached with 3 ml of trypsin/EDTA (chelator of calcium and magnesium ions) (Lonza), incubated for 5 min at 37° C., and examined using a microscope to ensure that the cells were detached and floating. Then, 3 ml TNS (Trypsin Neutralizing Solution, Lonza, France, cat no CC-5002) or of culture medium were added to inactivate the trypsin, and the cell suspension was transferred in a falcon and centrifuged for 7 min at 1400 rpm. The supernatant was removed and the cell pellet resuspended in […] of culture medium. 50 μl of this solution were transferred in 20 μl of isotonic solution and the cells were counted by count cellular (Beckman Coulter). At day 0, 200 μl of cellular suspension (3.10^3 cells/well for the HUVEC cells, breast cancer cells (MDA-MB-231 1.10^4 cells/well, MDA-MB-436 1.10^4 cells/well, MDA-MB-438 2.10^4 cells/well, BT-474 2.5.10^4 cells/well); cervical cancer cells (HeLa 5.000 cells/well); colon cancer cells (HCT-116 5.10^3 cells/well, HCT-29 1.1.10^4 cells/well); osteosarcoma cells (U2OS 8.10^3 cells/well); pancreas cancer cells (MIA PaCa-2 5.10^3 cells/well, Panc-10.5 1.5.10^4 cells/well); prostate cancer cells (PC-3 4.10^3 cells/well, LNCaP 2.10^4 cells/well); brain cancer cells (U87 5.10^3 cells/well, SH-SYSY 8.10^4 cells/well)) were then plated on 96 well plates and incubated at 37° C. in a humidified atmosphere of 5% CO2 for 24 h.
(§7) At day 1, the compounds 1 or 2 of the invention were added at increasing concentrations (0.1-10 μM) in the wells and plates were incubated at 37° C. in a humidified atmosphere of 5% CO2 for 72 h.
as §2
(§8) After an incubation period of 72 h, at day 4, were prepared the 19 ml medium with reagent WST-1 1 ml ([…]). The medium was removed from the 96 microplate and 200 μl of solution WST-1/medium were added for each well. […]

NCI-H460 = test: WST-1 proliferation assay, NCI-H460; format: cell-based; details: Homo sapiens; Lung NCI-H460; read-out: Anti-proliferative activity IC50 (μM) ± SD
Description: as §5
Cells were grown as subconfluent monolayer and cultured in 75 cm^2 flasks at 37° C., 5% CO2 in a humidified atmosphere, and medium was changed every two days. […]
as §3
After an incubation period of 72 h, at day 4, were prepared the 19 ml medium with reagent WST-1 1 ml ([…]). […] The cells were incubated at 37° C. in a humidified atmosphere of 5% CO2 for 1 h 30 and the absorbance at 450-655 nm was measured by Microplate Manager 5.2 (Bio-Rad).

Panc-10.5 = test: WST-1 proliferation assay, Panc-10.5; format: cell-based; details: Homo sapiens; for inhibition at 0.1 µM: PANC - 10.5, 0.1 μM; for inhibition at 0.5 µM: PANC - 10.5, 0.5 μM; for inhibition at 1 µM: PANC - 10.5, 1 μM; for IC50: Pancreas Panc-10.5, 72 h, read-out: Anti-proliferative activity IC50 (μM) ± SD
Text: as §4, §5, §1, §6, §7, §2, §8

PC-3 = test: WST-1 proliferation assay, PC-3; format: cell-based; details: Homo sapiens; for inhibition at 0.1 µM: PC-3, 0.1 μM; for inhibition at 0.5 µM: PC-3, 0.5 μM; for inhibition at 1 µM: PC-3, 1 μM; for IC50: Prostate PC-3, 72 h, read-out: Anti-proliferative activity IC50 (μM) ± SD
Text: as §4, §5, §1, §6, §7, §2, §8

U87 glioblastoma [2] = test: WST-1 proliferation assay, U87; format: cell-based; details: Homo sapiens
HeLa = test: WST-1 proliferation assay, HeLa; format: cell-based; details: Homo sapiens

SMILES	IC50 (MDA-MB-231) [µM]	effect on anti-proliferative effect of 5-FU (MDA-MB-231)	cytotoxicity for cancer cells in vitro (MDA-MB-231)	IC50 (BT-474) [µM]	IC50 (U87 glioblastoma [1]) [µM]	inhibition at 0.1 µM (U87 glioblastoma [1]) [%]	inhibition at 0.5 µM (U87 glioblastoma [1]) [%]	inhibition at 1 µM (U87 glioblastoma [1]) [%]	IC50 (NCI-H460) [µM]	inhibition at 0.1 µM (Panc-10.5) [%]	inhibition at 0.5 µM (Panc-10.5) [%]	inhibition at 1 µM (Panc-10.5) [%]	IC50 (Panc-10.5) [µM]	inhibition at 0.1 µM (PC-3) [%]	inhibition at 0.5 µM (PC-3) [%]	inhibition at 1 µM (PC-3) [%]	IC50 (PC-3) [µM]	inhibition at 0.05 µM (U87 glioblastoma [2]) [%]	inhibition at 0.05 µM (HeLa) [%]
O=C(NC(=S)Nc1cccc(-c2nc3ccccc3[nH]2)c1)c1ccc2c(c1)OCCO2 [Compound 2, N-[3-(1H-benzimidazol-2-yl)phenyl]-N′-(2,3-dihydro-1,4-benzodioxin-6-ylcarbonyl)thiourea]	0.4 ± 0.02	increase the anti-proliferative effect of 5-FU	cytotoxic	1.6 ± 0.06	0.3 ± 0.02	44	60	61	0.3 ± 0.04	51	62	65	0.1 ± 0.09	29	46	46	1.5 ± 0.12	19	49
Cc1ccc(-c2nc3ccccc3[nH]2)cc1NC(=S)NC(=O)c1ccc2c(c1)OCCO2 [Compound 1, N-[5-(1H-benzimidazol-2-yl)-2-methylphenyl]-N′-(2,3-dihydro-1,4-benzodioxin-6-ylcarbonyl)thiourea]	0.6 ± 0.03	increase the anti-proliferative effect of 5-FU	cytotoxic	2	1	0	45	54	0.5 ± 0.09	21	44	56	1	3	25	47	1.7 ± 0.04	0	4
